This is an account of results in publication PMC8488693 (Proceedings of the National Academy of Sciences of the …, 2021).

The test system of one experiment is Pf cultures. Particulars: ref [9]; cited from earlier work.
The target in a further experiment is Hs20S β5c (Homo sapiens, UniProt P20618+P28074). As to the kind of experiment: Hs20S β5c activity, Ac-WLA-AMC cleavage with human PA28αβ. Format: biochemical.

Turning to `CC(C)C[C@H](NC(=O)[C@H](Cc1ccccc1)NC(=O)c1cnccn1)B(O)O` [Bortezomib, bortezomib, reference compound], the “Synergy with dihydroxyartemisinin (DHA)” value in the experiment on Pf cultures was “strong synergy”. For the same compound, the “More potent as inhibitor of Hsβ5c activity than of Pfβ5 activity” value on Hs20S β5c was “twofold”.
